According to patent publication US6395740B1, “Calcitonin mimetics” (ZymoGenetics, Inc., priority 1997, dated 2002):

System: PTH-induced bone resorption in mouse calvaria
Test: Calvarial assay to determine calcitonin escape
Type: cell-based
Experimental: Calvaria from 4-day old neonatal CD-1 mice (pregnant mice received from Charles River Laboratories) were trimmed with fine-tipped scissors to leave the parietal regions, including the sagittal suture. These trimmed bones were placed singly per well into 6-well culture cluster plates (Costar) with 1 mL/well of growth medium, Basel Medium (Eagle's with Earle's salts (GIBCO BRL, Gaithersburg, Md.)) containing 4.5 g/L glucose, 0.29 mg/mL L-glutamine, 1 mM sodium pyruvate, 15% heat-inactivated horse serum, antibiotics (penicillin-G 50 μg/mL, streptomycin 50 μg/mL, and neomycin 100 μg/mL) and containing 5 nM parathyroid hormone (PTH) 1-34 (Sigma), and rocked gently (RedRocker™) at 37° C. in a 5% CO2 humidified incubator for 17.5 hours preincubation. The concentration of PTH was chosen to insure maximum resorption. Calvaria designated as controls were pre-incubated in media without PTH.
Following preincubation, medium was removed and replaced with 1 mL/well of growth medium, as above, containing 20 or 30 μg/mL of the calcitonin mimetic 850-0231 in DMSO (final assay concentration of DMSO less than or equal to 1%), and compared with human calcitonin (hCT) tested at 0.5, 1.0, 5.0, […] All control wells contained a final assay concentration of DMSO equal to that present in the calcitonin mimetic treated wells.
Five bones were included in each sample group. Bones were incubated for a total of 98 hours. Time points were taken at 4, 8, 11, 24, 50.5, 72.5 and 98 hours. At each time point the media containing PTH was removed and fresh dilutions of compound in media were added to the calvaria. After the media was removed, total calcium measurements were made using a Nova 7/7+7 Electrolyte Analyzed (Nova Biomedical) according to the manufacturer's specifications. Induction of bone resorption by PTH is seen as an increase in the concentration of calcium in the growth medium due to degradation of the bone matrix.
A second calvaria bone resorption/escape assay was performed as described above with time points at 4, 8, 12, 16, 24, 49 and 73 hours. […] Histology was done on the PTH-treated and the 30 μg/mL calcitonin mimetic-treated calvaria.
A third calvaria bone resorption/escape assay was performed as described above with the following modifications. The calcitonin mimetic was tested at 5, 10 and 20 μg/mL. PTH was used at 10 nM to insure maximal resorption, hCT was tested at 2 nM and 8 nM and sCT was not included. Calvaria were pretreated with PTH for 19.75 hours. BrdU (bromodeoxyuridine, final concentration 10 μM) was added to the growth media for the final 17.5 hours, to identify proliferating cells. The lack of toxicity of 850-0231 will be verified by quartitating the number of proliferating BudU cells in histological sections of the calvaria. Time points were taken at 4, 8, 11, 24.5, 48 and 77 hours. A Novo CRT 10+ electrolyte analyzer (Nova Biomedical) was used to analyze the time point samples.
At the final time point, visual observations were made and photos taken to note the extent of resorption, and migration from the calvarial cells as a measure of toxicity. Again, human calcitonin lost its inhibitory effect between hours 11 and 24 (Table 5). The calvaria treated with the mimetic at 5 and 10 μg/mL also lost inhibitory effect between 11 and 24 hours.

## COc1cc(CN2CCN(C(=O)Nc3cccc(C(F)(F)F)c3)CC2)ccc1O [Compound 850-0231]
First assay, PTH 5 nM, 30 μg/mL
  escape / continued inhibition of resorption: did not undergo this escape and continued to inhibit resorption throughout the 98th, hour
First assay, PTH 5 nM, 850-0231 30 μg/mL, 4 hours
  Cumulative Total Calcium: 0.16 mg %
First assay, PTH 5 nM, 850-0231 30 μg/mL, 8 hours
  Cumulative Total Calcium: 0.28 mg %
First assay, PTH 5 nM, 850-0231 30 μg/mL, 11 hours
  Cumulative Total Calcium: 0.36 mg %
First assay, PTH 5 nM, 850-0231 30 μg/mL, 24 hours
  Cumulative Total Calcium: 0.48 mg %
First assay, PTH 5 nM, 850-0231 30 μg/mL, 50.5 hours
  Cumulative Total Calcium: 0.32 mg %
First assay, PTH 5 nM, 850-0231 30 μg/mL, 72.5 hours
  Cumulative Total Calcium: 0.12 mg %
First assay, PTH 5 nM, 850-0231 30 μg/mL, 98 hours
  Cumulative Total Calcium: −0.18 mg %
First assay, final time point
  toxicity judged by number of cells migrated from calvaria: not toxic to the cells
First assay, final time point (98 hours)
  visual observation of the calvaria (resorption): almost identical in appearance to the untreated calavaria
Second assay, 30 μg/mL
  histology of treated calvaria (integrity, toxicity): intact and showed minimal signs of toxicity
Second assay, PTH 5 nM
  continued inhibition of resorption: able to continue inhibition of resorption throughout the 73rd hour
Second assay, PTH 5 nM, 850-0231 30 μg/mL, 4 hours
  Cumulative Total Calcium: 0.40 mg %
Second assay, PTH 5 nM, 850-0231 30 μg/mL, 8 hours
  Cumulative Total Calcium: 0.70 mg %
Second assay, PTH 5 nM, 850-0231 30 μg/mL, 12 hours
  Cumulative Total Calcium: 0.88 mg %
Second assay, PTH 5 nM, 850-0231 30 μg/mL, 16 hours
  Cumulative Total Calcium: 1.14 mg %
Second assay, PTH 5 nM, 850-0231 30 μg/mL, 24 hours
  Cumulative Total Calcium: 1.04 mg %
Second assay, PTH 5 nM, 850-0231 30 μg/mL, 49 hours
  Cumulative Total Calcium: 0.86 mg %
Second assay, PTH 5 nM, 850-0231 30 μg/mL, 73 hours
  Cumulative Total Calcium: 0.56 mg %
Third assay, PTH 10 nM, 20 μg/mL
  inhibition of resorption: significantly inhibited at all time points
Third assay, PTH 10 nM, 850-0231 5 μg/mL, 4 hours
  Cumulative Total Calcium: 0.47 mg %
Third assay, PTH 10 nM, 850-0231 5 μg/mL, 8 hours
  Cumulative Total Calcium: 1.08 mg %
Third assay, PTH 10 nM, 850-0231 5 μg/mL, 11 hours
  Cumulative Total Calcium: 1.49 mg %
Third assay, PTH 10 nM, 850-0231 5 μg/mL, 24.5 hours
  Cumulative Total Calcium: 3.73 mg %
Third assay, PTH 10 nM, 850-0231 5 μg/mL, 48 hours
  Cumulative Total Calcium: 7.54 mg %
Third assay, PTH 10 nM, 850-0231 5 μg/mL, 77 hours
  Cumulative Total Calcium: 11.83 mg %
Third assay, PTH 10 nM, 850-0231 10 μg/mL, 4 hours
  Cumulative Total Calcium: 0.41 mg %
Third assay, PTH 10 nM, 850-0231 10 μg/mL, 8 hours
  Cumulative Total Calcium: 0.87 mg %
Third assay, PTH 10 nM, 850-0231 10 μg/mL, 11 hours
  Cumulative Total Calcium: 1.30 mg %
Third assay, PTH 10 nM, 850-0231 10 μg/mL, 24.5 hours
  Cumulative Total Calcium: 3.05 mg %
Third assay, PTH 10 nM, 850-0231 10 μg/mL, 48 hours
  Cumulative Total Calcium: 5.96 mg %
Third assay, PTH 10 nM, 850-0231 10 μg/mL, 77 hours
  Cumulative Total Calcium: 8.87 mg %
Third assay, PTH 10 nM, 850-0231 20 μg/mL, 4 hours
  Cumulative Total Calcium: 0.35 mg %
Third assay, PTH 10 nM, 850-0231 20 μg/mL, 8 hours
  Cumulative Total Calcium: 0.70 mg %
Third assay, PTH 10 nM, 850-0231 20 μg/mL, 11 hours
  Cumulative Total Calcium: 0.94 mg %
Third assay, PTH 10 nM, 850-0231 20 μg/mL, 24.5 hours
  Cumulative Total Calcium: 2.23 mg %
Third assay, PTH 10 nM, 850-0231 20 μg/mL, 48 hours
  Cumulative Total Calcium: 3.20 mg %
Third assay, PTH 10 nM, 850-0231 20 μg/mL, 77 hours
  Cumulative Total Calcium: 3.78 mg %
